Our source for the activity values is patent US8501713B2, “Drug combinations for the treatment of duchenne muscular dystrophy” (Summit Corporation PLC, priority 2007, dated 2013).

The assay relates to Utrophin A promoter linked to a luciferase reporter gene. The assay is described as follows: Luciferase reporter assay (murine H2K cells). It is filed as cell-based. The following applies: Mus musculus, H2K mdx, luciferase level relative to control; H2K/mdx/Utro A reporter cells; compound 10 μM final concentration; read-out: Activity. The method in brief:
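Immortalized mdx mouse H2K myoblasts stably carrying a ~5 kb utrophin A promoter–luciferase construct, kept at 33° C, 10% CO2. After 24 hrs plating, compound added at 10 μM final for 48 hrs; luciferase light output read after in-situ lysis.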

Consider `CCCc1nc2cc(N)ccc2o1` [Example 154, 2-propylbenzo[d]oxazol-5-amine], for which the activity at 10 µM was < 200%.

For the compound `Nc1ccc2nc(-c3ccccc3)oc2c1` [Example 155, 2-phenylbenzo[d]oxazol-6-amine], the activity at 10 µM was 301 to 400%.

Regarding `c1ccc(CNc2ccc3oc(-c4ccccc4)nc3c2)cc1` [Example 156, N-benzyl-2-phenylbenzo[d]oxazol-5-amine], the activity at 10 µM fell in the range of 301 to 400%.

As to `Cc1ccc(-c2nc3cccnc3o2)cc1` [Example 157, 2-p-tolyloxazolo[5,4-b]pyridine], the activity at 10 µM was in the range of 301 to 400%.

`Cc1ccc(-c2nc3ncccc3o2)cc1` [Example 158, 2-p-tolyloxazolo[4,5-b]pyridine]: the activity at 10 µM is < 200%.

In the case of `Nc1ccc2oc(-c3ccc(N4CCOCC4)cc3)nc2c1` [Example 159, 2-(4-morpholinophenyl)benzo[d]oxazol-5-amine], the activity at 10 µM is < 200%.

Consider `COCCC(=O)Nc1ccc2oc(-c3ccc(C)cc3)nc2c1` [Example 160, 3-methoxy-N-(2-p-tolylbenzo[d]oxazol-5-yl)propanamide], for which the activity at 10 µM is > 401%.

For `Cc1ccc(-c2nc3cc(-c4ccccc4)ccc3o2)cc1` [Example 161, 5-phenyl-2-p-tolylbenzo[d]oxazole], the activity at 10 µM was 301 to 400%.

Turning to `Clc1ccc(-c2nc3cc(-c4ccccc4)ccc3o2)cc1` [Example 162, 2-(4-chlorophenyl)-5-phenylbenzo[d]oxazole], the activity at 10 µM was < 200%.

Turning to `O=[N+]([O-])c1ccc2oc(C3CCCCC3)nc2c1` [Example 163, 2-cyclohexyl-5-nitrobenzo[d]oxazole], the activity at 10 µM was < 200%.

For the compound `O=[N+]([O-])c1ccc2nc(-c3ccc(Cl)cc3)[nH]c2c1` [Example 164, 2-(4-chlorophenyl)-6-nitro-1H-benzo[d]imidazole], the activity at 10 µM was in the range of 201 to 300%.

With `O=C(Cc1ccccc1)Nc1ccc2oc(Cc3ccccc3)nc2c1` [Example 165, N-(2-benzylbenzo[d]oxazol-5-yl)-2-phenylacetamide], the activity at 10 µM is < 200%.

On to `CCCC(=O)Nc1ccc2[nH]c(-c3ccc(C)cc3)nc2c1` [Example 166, N-(2-p-tolyl-1H-benzo[d]imidazol-5-yl)butyramide], for which the activity at 10 µM was < 200%.

Consider `CCCCNc1ccc2oc(-c3ccccc3)nc2c1` [Example 167, N-butyl-2-phenylbenzo[d]oxazol-5-amine], for which the activity at 10 µM is > 401%.

As to `CC(C)CNc1ccc2oc(-c3ccccc3)nc2c1` [Example 168, N-isobutyl-2-phenylbenzo[d]oxazol-5-amine], the activity at 10 µM is > 401%.

As to `Nc1cnc2oc(-c3ccccc3)nc2c1` [Example 169, 2-phenyloxazolo[5,4-b]pyridin-6-amine], the activity at 10 µM was < 200%.

Regarding `CCCC(=O)Nc1cnc2oc(-c3ccccc3)nc2c1` [Example 170, N-(2-phenyloxazolo[5,4-b]pyridin-6-yl)butyramide], the activity at 10 µM is < 200%.

Take `O=[N+]([O-])c1ccc2oc(-c3ccccn3)nc2c1` [Example 171, 5-nitro-2-(pyridin-2-yl)benzo[d]oxazole]: the activity at 10 µM was < 200%.

With `Cc1ccc(-c2nc3cc(C(C)(C)C)ccc3o2)cc1` [Example 172, 5-tert-butyl-2-p-tolylbenzo[d]oxazole], the activity at 10 µM was > 401%.

Take `Cc1ccc(-c2nc3ccccc3o2)cc1` [Example 173, 2-p-tolylbenzo[d]oxazole]: the activity at 10 µM lay in the range of 301 to 400%.

Take `Nc1ccc2oc(-c3cccc(C(F)(F)F)c3)nc2c1` [Example 174, 2-(3-(trifluoromethyl)phenyl)benzo[d]oxazol-5-amine]: the activity at 10 µM is < 200%.

For the compound `Cc1ccc(-c2nc3cc(NC(=O)C(C)C)ccc3[nH]2)cc1` [Example 175, N-(2-p-tolyl-1H-benzo[d]imidazol-5-yl)isobutyramide], the activity at 10 µM is < 200%.

With `CCCCNC(=O)c1ccc2oc(-c3ccc(C)cc3)nc2c1` [Example 176, N-butyl-2-p-tolylbenzo[d]oxazole-5-carboxamide], the activity at 10 µM is 201 to 300%.

Take `CCCNC(=O)c1ccc2oc(-c3ccc(C)cc3)nc2c1` [Example 177, N-propyl-2-p-tolylbenzo[d]oxazole-5-carboxamide]: the activity at 10 µM is > 401%.

For the compound `CCCC(=O)Nc1ccc2[nH]c(-c3ccc(Cl)cc3)nc2c1` [Example 178, N-(2-(4-chlorophenyl)-1H-benzo[d]imidazol-5-yl)butyramide], the activity at 10 µM was < 200%.

`CCS(=O)(=O)c1ccc2oc(-c3ccc(C)cc3)nc2c1` [Example 179, 5-(ethylsulfonyl)-2-p-tolylbenzo[d]oxazole]: the activity at 10 µM was > 401%.

As for `CCS(=O)(=O)c1ccc2oc(-c3ccc(Cl)cc3)nc2c1` [Example 180, 2-(4-chlorophenyl)-5-(ethylsulfonyl)benzo[d]oxazole], the activity at 10 µM was > 401%.

Take `Cc1ccc(-c2nc3cc(C(=O)NC(C)C)ccc3o2)cc1` [Example 181, N-isopropyl-2-p-tolylbenzo[d]oxazole-5-carboxamide]: the activity at 10 µM was 301 to 400%.

Take `CCCCNc1ccc2oc(-c3ccc(Cl)cc3)nc2c1` [Example 182, N-butyl-2-(4-chlorophenyl)benzo[d]oxazol-5-amine]: the activity at 10 µM was in the range of 301 to 400%.

`CC(C)CNc1ccc2oc(-c3ccc(Cl)cc3)nc2c1` [Example 183, 2-(4-chlorophenyl)-N-isobutylbenzo[d]oxazol-5-amine]: the activity at 10 µM lay within 301 to 400%.

In the case of `Clc1ccc(-c2nc3cc(NCc4ccccc4)ccc3o2)cc1` [Example 184, N-benzyl-2-(4-chlorophenyl)benzo[d]oxazol-5-amine], the activity at 10 µM is < 200%.

Take `CCCCNc1ccc2oc(-c3ccc(C)cc3)nc2c1` [Example 185, N-butyl-2-p-tolylbenzo[d]oxazol-5-amine]: the activity at 10 µM fell in the range of 301 to 400%.

Turning to `Cc1ccc(-c2nc3cc(NCC(C)C)ccc3o2)cc1` [Example 186, N-isobutyl-2-p-tolylbenzo[d]oxazol-5-amine], the activity at 10 µM lay within 301 to 400%.

For the compound `Cc1ccc(-c2nc3cc(NCc4ccccc4)ccc3o2)cc1` [Example 187, N-benzyl-2-p-tolylbenzo[d]oxazol-5-amine], the activity at 10 µM fell in the range of 301 to 400%.

Regarding `CC(C)C(=O)Nc1ccc2[nH]c(-c3ccccc3)nc2c1` [Example 188, N-(2-phenyl-1H-benzo[d]imidazol-5-yl)isobutyramide], the activity at 10 µM was in the range of 301 to 400%.

Turning to `Cc1ccc(-c2nc3c([N+](=O)[O-])cccc3o2)cc1` [Example 189, 4-nitro-2-p-tolylbenzo[d]oxazole], the activity at 10 µM was < 200%.

Regarding `Cc1ccc(-c2nc3ccc([N+](=O)[O-])cc3o2)cc1` [Example 190, 6-nitro-2-p-tolylbenzo[d]oxazole], the activity at 10 µM lay in the range of 301 to 400%.

Take `O=[N+]([O-])c1ccc2nc(-c3ccc(Cl)cc3)oc2c1` [Example 191, 2-(4-chlorophenyl)-6-nitrobenzo[d]oxazole]: the activity at 10 µM lay in the range of 201 to 300%.

As to `Cc1ccc(-c2nc3cnccc3o2)cc1` [Example 192, 2-p-tolyloxazolo[4,5-c]pyridine], the activity at 10 µM is < 200%.

As for `CCCS(=O)(=O)Nc1ccc2oc(-c3ccccc3)nc2c1` [Example 193, N-(2-phenylbenzo[d]oxazol-5-yl)propane-1-sulfonamide], the activity at 10 µM lay within 201 to 300%.

As for `CCCC(=O)Nc1ccc2[nH]c(-c3ccccc3)nc2c1` [Example 194, N-(2-phenyl-1H-benzo[d]imidazol-5-yl)butyramide], the activity at 10 µM lay within 201 to 300%.

For the compound `CC(C)C(=O)Nc1ccc2[nH]c(-c3ccc(Cl)cc3)nc2c1` [Example 195, N-(2-(4-chlorophenyl)-1H-benzo[d]imidazol-5-yl)isobutyramide], the activity at 10 µM fell in the range of 201 to 300%.

Consider `Cc1cccc(-c2nc3cc(N)ccc3o2)c1` [Example 196, 2-m-tolylbenzo[d]oxazol-5-amine], for which the activity at 10 µM was < 200%.

`CN(C)c1cccc(-c2nc3cc(N)ccc3o2)c1` [Example 197, 2-(3-(dimethylamino)phenyl)benzo[d]oxazol-5-amine]: the activity at 10 µM is < 200%.

Turning to `Cc1ccc(-c2nc3cc(Br)ccc3o2)cc1` [Example 198, 5-bromo-2-p-tolylbenzo[d]oxazole], the activity at 10 µM was 301 to 400%.

As for `COc1ccc(-c2ccc3oc(-c4ccc(C)cc4)nc3c2)cc1` [Example 199, 5-(4-methoxyphenyl)-2-p-tolylbenzo[d]oxazole], the activity at 10 µM is < 200%.

Turning to `CCCC(=O)Nc1ccc2oc(-c3cccc(C)c3)nc2c1` [Example 200, N-(2-m-tolylbenzo[d]oxazol-5-yl)butyramide], the activity at 10 µM is > 401%.

Regarding `CCCC(=O)Nc1ccc2oc(-c3cccc(N(C)C)c3)nc2c1` [Example 201, N-(2-(3-(dimethylamino)phenyl)benzo[d]oxazol-5-yl)butyramide], the activity at 10 µM was < 200%.

Regarding `Cc1cccc(-c2nc3cc(NC(=O)C(C)C)ccc3o2)c1` [Example 202, N-(2-m-tolylbenzo[d]oxazol-5-yl)isobutyramide], the activity at 10 µM was > 401%.

As to `CC(C)C(=O)Nc1ccc2oc(-c3cccc(C(F)(F)F)c3)nc2c1` [Example 203, N-(2-(3-(trifluoromethyl)phenyl)benzo[d]oxazol-5-yl)isobutyramide], the activity at 10 µM is < 200%.

As to `CC(C)C(=O)Nc1ccc2oc(-c3cccc(N(C)C)c3)nc2c1` [Example 204, N-(2-(3-(dimethylamino)phenyl)benzo[d]oxazol-5-yl)isobutyramide], the activity at 10 µM is > 401%.

Consider `Cc1ccccc1-c1nc2cc(N)ccc2o1` [Example 205, 2-o-tolylbenzo[d]oxazol-5-amine], for which the activity at 10 µM was in the range of 301 to 400%.

Turning to `Nc1ccc2oc(-c3ccccc3Cl)nc2c1` [Example 206, 2-(2-chlorophenyl)benzo[d]oxazol-5-amine], the activity at 10 µM lay in the range of 201 to 300%.

As to `CCC(=O)Nc1ccc2oc(-c3ccc(Cl)cc3)nc2c1` [Example 207, N-(2-(4-chlorophenyl)benzo[d]oxazol-5-yl)propionamide], the activity at 10 µM was > 401%.
